Reference: ChEMBL document CHEMBL1157610, “Bis(morpholino-1,3,5-triazine) derivatives: potent adenosine 5'-triphosphate competitive phosphatidylinositol-3-kinase/mammalian target of rapamycin inhibitors: discovery of compound 26 (PKI-587), a highly efficacious dual inhibitor” (J Med Chem, 2010)
In brackets after ≈: the same amount, converted by molar mass. Activity calls are given as the source filed them. The calls are words filed in the database; no cut-off is given here.

Experiments:
[1] = Membrane permeability at pH 7.4 by PAMPA assay; assay type: ADME; conditions: read-out: permeability
[2] = system: MDA-MB-361; assay: cells; conditions: Homo sapiens
[3] = cells; conditions: Homo sapiens, PC3MM2
[4] = Solubility at pH 7.4; assay type: physicochemical; conditions: buffer
[5] = target: Serine/threonine-protein kinase mTOR (Homo sapiens, UniProt P42345)
[6] = target: Phosphatidylinositol 4,5-bisphosphate 3-kinase catalytic subunit alpha isoform (Homo sapiens, UniProt P42336)
[7] = target: Phosphatidylinositol 4,5-bisphosphate 3-kinase catalytic subunit gamma isoform (Homo sapiens, UniProt P48736)
[8] = target: T1, Nitric oxide synthase 3 (Homo sapiens) (UniProt P29474); assay: Inhibition of eNOS phosphorylation in human MDA-MB-361 cells by Western blotting; assay type: cell-based
T1 sequence (whole entry): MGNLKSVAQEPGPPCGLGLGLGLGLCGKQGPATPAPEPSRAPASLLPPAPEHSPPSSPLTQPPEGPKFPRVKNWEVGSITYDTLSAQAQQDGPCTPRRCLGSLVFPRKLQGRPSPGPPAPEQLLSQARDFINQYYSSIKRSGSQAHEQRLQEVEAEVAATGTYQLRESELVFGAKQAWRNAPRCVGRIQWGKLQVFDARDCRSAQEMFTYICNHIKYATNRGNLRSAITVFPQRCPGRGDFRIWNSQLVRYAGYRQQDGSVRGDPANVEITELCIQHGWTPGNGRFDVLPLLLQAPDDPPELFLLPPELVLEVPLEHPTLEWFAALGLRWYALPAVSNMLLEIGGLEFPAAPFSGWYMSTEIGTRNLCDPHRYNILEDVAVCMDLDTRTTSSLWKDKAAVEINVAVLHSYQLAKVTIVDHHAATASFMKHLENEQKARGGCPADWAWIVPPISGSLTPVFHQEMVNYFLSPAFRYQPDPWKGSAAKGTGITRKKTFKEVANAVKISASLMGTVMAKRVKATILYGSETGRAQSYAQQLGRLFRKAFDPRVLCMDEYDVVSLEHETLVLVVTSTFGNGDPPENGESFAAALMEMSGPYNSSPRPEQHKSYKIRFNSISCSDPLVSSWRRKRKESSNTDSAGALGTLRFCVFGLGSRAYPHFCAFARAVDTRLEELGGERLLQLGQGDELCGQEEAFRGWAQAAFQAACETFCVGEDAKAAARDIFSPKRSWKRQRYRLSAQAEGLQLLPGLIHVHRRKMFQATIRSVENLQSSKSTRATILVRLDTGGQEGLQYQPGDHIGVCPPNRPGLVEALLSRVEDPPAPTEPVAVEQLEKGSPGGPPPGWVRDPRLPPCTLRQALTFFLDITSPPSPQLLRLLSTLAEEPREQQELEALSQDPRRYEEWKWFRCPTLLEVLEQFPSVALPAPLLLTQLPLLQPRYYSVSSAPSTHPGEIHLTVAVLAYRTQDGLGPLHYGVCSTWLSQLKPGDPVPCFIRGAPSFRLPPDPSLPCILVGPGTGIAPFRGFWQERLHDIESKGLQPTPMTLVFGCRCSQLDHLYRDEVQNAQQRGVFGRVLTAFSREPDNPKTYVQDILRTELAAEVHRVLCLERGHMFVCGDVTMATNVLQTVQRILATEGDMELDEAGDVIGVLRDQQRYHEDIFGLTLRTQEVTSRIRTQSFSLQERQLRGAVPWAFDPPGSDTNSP

[9] = target: Proline-rich AKT1 substrate 1 (Homo sapiens) (UniProt Q96B36); assay: Inhibition of PARS40 phosphorylation in human MDA-MB-361 cells by Western blotting; assay type: cell-based
[10] = target: Glycogen synthase kinase-3 (Homo sapiens) (UniProt P49840+P49841); assay: Inhibition of GSK3 kinase phosphorylation in human MDA-MB-361 cells by Western blotting; assay type: cell-based
[11] = Half life in mouse at 25 mg/kg, iv; assay type: ADME, organism-based; set-up: dose 25 mg/kg, route intravenous; conditions: in vivo
[12] = Last AUC in mouse at 25 mg/kg, iv; assay type: ADME, organism-based; set-up: dose 25 mg/kg, route intravenous; conditions: in vivo
[13] = AUC (0 to infinity) in mouse at 25 mg/kg, iv; assay type: ADME, organism-based; set-up: dose 25 mg/kg, route intravenous, time infinity; conditions: plasma
[14] = Plasma clearance in mouse at 25 mg/kg, iv; assay type: ADME, organism-based; set-up: dose 25 mg/kg, route intravenous
[15] = Volume of distribution at steady state in mouse at 25 mg/kg, iv; assay type: ADME, organism-based; set-up: dose 25 mg/kg, route intravenous; conditions: in vivo, read-out: Vdss
[16] = […] in mouse at 25 mg/kg, iv; assay type: ADME, organism-based; set-up: dose 25 mg/kg, route intravenous; conditions: in vivo
[17] = target: RAC-alpha serine/threonine-protein kinase (Homo sapiens) (UniProt P31749); assay: Inhibition of Akt T308 phosphorylation in human MDA-MB-361 cells xenografted mouse model upto 36 hrs; assay type: cell-based
[18] = target: RAC-alpha serine/threonine-protein kinase (Homo sapiens) (UniProt P31749); assay: Inhibition of Akt S473 phosphorylation in human MDA-MB-361 cells xenografted mouse model upto 36 hrs; assay type: cell-based
[19] = system: MDA-MB-361; assay: Induction of PARP cleavage in human MDA-MB-361 cells xenografted mouse model upto 18 hrs; assay type: functional, cell-based
[20] = system: MDA-MB-361; assay: Antitumor activity against human MDA-MB-361 cells xenografted mouse model assessed as reduction in tumor volume at 20 mg/kg, iv on day 1, 5, 9; assay type: functional, organism-based; set-up: dose 20 mg/kg
[21] = system: Mus musculus; assay: Antitumor activity against human MDA-MB-361 cells xenografted mouse model assessed as minimum effective dose; assay type: functional; conditions: read-out: MED
[22] = system: Mus musculus; assay: Antitumor activity against human MDA-MB-361 cells xenografted mouse model assessed as maximum tolerated single dose; assay type: functional
[23] = system: NCI-H1975; assay: Antitumor activity against human NCI-H1975 cells xenografted orthotopic mouse model assessed as survival at 25 mg/kg once weekly for 7 weeks relative to untreated control; assay type: functional

Phosphatidylinositol 4,5-bisphosphate 3-kinase catalytic subunit alpha isoform, sequence (P42336 whole entry, canonical isoform): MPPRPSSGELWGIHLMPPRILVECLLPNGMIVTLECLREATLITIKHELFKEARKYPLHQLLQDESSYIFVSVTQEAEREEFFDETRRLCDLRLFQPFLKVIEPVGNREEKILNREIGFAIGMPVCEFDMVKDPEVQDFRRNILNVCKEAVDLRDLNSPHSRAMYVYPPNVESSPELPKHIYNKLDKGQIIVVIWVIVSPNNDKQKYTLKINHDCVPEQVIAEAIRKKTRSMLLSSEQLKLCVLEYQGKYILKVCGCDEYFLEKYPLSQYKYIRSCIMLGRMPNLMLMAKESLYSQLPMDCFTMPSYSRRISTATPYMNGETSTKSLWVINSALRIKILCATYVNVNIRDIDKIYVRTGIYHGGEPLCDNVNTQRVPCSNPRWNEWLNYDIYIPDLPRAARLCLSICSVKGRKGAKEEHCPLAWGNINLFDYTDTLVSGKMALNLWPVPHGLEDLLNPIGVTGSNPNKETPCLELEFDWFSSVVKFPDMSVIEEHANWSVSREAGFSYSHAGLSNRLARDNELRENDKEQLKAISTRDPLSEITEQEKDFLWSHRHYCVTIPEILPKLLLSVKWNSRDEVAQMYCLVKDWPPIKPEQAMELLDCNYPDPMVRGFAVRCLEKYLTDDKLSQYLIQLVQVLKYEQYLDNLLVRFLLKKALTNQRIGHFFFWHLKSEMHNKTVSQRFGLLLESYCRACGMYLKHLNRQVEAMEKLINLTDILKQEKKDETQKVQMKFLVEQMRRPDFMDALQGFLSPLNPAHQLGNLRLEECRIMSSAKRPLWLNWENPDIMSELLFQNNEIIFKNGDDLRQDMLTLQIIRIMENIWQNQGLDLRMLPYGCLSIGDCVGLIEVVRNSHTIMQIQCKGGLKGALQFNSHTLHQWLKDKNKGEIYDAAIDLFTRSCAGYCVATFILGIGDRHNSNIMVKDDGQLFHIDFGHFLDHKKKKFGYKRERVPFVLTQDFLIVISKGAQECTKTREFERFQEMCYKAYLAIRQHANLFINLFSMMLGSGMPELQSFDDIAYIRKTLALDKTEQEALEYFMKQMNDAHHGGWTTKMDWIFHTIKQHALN
Phosphatidylinositol 4,5-bisphosphate 3-kinase catalytic subunit gamma isoform, sequence (P48736 whole entry, canonical isoform): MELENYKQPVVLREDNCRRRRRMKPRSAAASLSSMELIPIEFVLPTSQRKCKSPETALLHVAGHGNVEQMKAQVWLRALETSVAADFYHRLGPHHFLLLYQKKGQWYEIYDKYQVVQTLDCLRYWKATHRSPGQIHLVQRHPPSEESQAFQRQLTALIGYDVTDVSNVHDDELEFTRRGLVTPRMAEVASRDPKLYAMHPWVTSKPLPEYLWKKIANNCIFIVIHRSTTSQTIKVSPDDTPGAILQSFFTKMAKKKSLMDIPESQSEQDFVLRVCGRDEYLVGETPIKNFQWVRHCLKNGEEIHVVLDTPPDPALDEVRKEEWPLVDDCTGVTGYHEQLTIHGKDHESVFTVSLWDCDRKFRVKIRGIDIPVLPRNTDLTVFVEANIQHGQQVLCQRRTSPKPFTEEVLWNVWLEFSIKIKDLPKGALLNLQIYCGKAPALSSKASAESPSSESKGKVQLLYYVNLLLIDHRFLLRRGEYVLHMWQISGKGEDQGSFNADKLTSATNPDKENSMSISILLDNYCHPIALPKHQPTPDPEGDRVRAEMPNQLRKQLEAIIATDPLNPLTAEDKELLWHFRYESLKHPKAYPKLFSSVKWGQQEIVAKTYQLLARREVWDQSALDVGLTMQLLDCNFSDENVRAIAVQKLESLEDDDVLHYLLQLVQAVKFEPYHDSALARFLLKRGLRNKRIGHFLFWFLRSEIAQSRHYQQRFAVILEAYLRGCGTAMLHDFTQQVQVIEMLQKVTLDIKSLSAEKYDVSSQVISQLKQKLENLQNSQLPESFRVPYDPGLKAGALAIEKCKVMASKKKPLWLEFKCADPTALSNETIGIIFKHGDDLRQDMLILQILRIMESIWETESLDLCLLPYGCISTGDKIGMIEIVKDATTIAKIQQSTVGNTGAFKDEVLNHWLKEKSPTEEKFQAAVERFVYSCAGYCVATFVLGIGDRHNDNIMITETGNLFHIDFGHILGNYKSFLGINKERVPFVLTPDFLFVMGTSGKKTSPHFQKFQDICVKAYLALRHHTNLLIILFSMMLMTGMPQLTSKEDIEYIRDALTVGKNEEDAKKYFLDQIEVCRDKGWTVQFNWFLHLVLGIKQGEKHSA
RAC-alpha serine/threonine-protein kinase (Homo sapiens), sequence (P31749 whole entry): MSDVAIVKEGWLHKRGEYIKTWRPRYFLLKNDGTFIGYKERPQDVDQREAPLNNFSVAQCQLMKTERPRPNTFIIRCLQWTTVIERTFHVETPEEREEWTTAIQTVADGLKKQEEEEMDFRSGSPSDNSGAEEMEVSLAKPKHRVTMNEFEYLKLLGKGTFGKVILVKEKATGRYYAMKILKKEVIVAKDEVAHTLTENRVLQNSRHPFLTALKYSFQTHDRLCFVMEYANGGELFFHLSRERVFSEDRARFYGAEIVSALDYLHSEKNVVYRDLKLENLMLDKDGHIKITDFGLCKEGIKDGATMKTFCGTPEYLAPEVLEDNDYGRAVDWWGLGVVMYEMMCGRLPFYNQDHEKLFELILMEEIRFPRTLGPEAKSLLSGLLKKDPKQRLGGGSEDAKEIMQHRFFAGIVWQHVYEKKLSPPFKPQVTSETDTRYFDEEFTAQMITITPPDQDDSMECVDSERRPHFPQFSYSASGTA
Glycogen synthase kinase-3 (Homo sapiens), sequence (P49840 whole entry, looked up): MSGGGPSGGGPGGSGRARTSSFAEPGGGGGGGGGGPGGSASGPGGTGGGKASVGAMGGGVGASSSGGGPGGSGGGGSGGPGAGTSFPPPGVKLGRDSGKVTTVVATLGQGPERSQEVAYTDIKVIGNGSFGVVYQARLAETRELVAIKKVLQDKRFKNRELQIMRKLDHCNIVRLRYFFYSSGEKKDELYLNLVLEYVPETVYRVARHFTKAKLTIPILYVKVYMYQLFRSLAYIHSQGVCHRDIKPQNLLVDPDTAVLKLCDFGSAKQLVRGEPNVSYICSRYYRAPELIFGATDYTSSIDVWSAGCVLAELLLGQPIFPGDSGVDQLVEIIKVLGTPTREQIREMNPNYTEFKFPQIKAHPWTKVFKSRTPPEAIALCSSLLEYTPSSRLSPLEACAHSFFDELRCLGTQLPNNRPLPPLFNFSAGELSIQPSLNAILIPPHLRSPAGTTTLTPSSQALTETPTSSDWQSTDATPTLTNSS
Glycogen synthase kinase-3 (Homo sapiens), sequence (P49841 whole entry, looked up): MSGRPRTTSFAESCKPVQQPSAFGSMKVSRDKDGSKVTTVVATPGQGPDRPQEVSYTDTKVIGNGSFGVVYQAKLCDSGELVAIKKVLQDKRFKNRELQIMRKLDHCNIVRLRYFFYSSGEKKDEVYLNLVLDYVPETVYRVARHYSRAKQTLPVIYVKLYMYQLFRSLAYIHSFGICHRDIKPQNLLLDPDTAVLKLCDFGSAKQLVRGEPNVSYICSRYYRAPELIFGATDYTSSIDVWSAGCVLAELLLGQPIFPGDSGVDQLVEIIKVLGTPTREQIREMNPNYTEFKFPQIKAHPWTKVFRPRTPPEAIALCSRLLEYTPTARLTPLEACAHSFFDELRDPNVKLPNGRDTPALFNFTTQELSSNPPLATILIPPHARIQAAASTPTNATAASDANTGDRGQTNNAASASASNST

Row | Papp [1] [×10⁻⁶ cm/s] | IC50 [2] [nM] | IC50 [3] [nM] | solubility [4] [µg/mL] | IC50 [5] [nM] | IC50 [6] [nM] | IC50 [7] [nM] | SMILES | further results
1 | 0.2 | 30 | 30 |  |  |  |  | O=C(Nc1ccc(CO)cc1)Nc1ccc(-c2nc(N3CCOCC3)nc(N3CCOCC3)n2)cc1 | 
2 | 5.6 | 200 | 364 |  |  |  |  | Cc1ccc(NC(=O)Nc2ccc(-c3nc(N4CCOCC4)nc(N4CCOCC4)n3)cc2)cc1 | 
3 |  |  | 24 | 1 (≈ 1.93 µM) |  |  |  | CNC(=O)c1ccc(NC(=O)Nc2ccc(-c3nc(N4CCOCC4)nc(N4CCOCC4)n3)cc2)cc1 | 
4 |  | 3 | 7 | 31 (≈ 47.3 µM) | 0.7 |  |  | O=C(Nc1ccc(C(=O)N2CCC(N3CCCCC3)CC2)cc1)Nc1ccc(-c2nc(N3CCOCC3)nc(N3CCOCC3)n2)cc1 | 
5 |  | 816 | 28 | 52 (≈ 103 µM) | 1.5 |  |  | O=C(Nc1ccc(C(=O)O)cc1)Nc1ccc(-c2nc(N3CCOCC3)nc(N3CCOCC3)n2)cc1 | 
6 |  | 10 | 13 |  | 1.4 | 0.5 | 9 | CN1CCN(C(=O)c2ccc(NC(=O)Nc3ccc(-c4nc(N5CCOCC5)nc(N5CCOCC5)n4)cc3)cc2)CC1 | 
7 |  | 407 | 293 | 1 (≈ 2.02 µM) | 6.7 |  |  | O=C(Nc1ccc(Cl)cc1)Nc1ccc(-c2nc(N3CCOCC3)nc(N3CCOCC3)n2)cc1 | 
8 | 1 | 118 | 193 |  | 3.9 | 6.5 |  | O=C(Nc1ccc(F)cc1)Nc1ccc(-c2nc(N3CCOCC3)nc(N3CCOCC3)n2)cc1 | 
9 |  | 3 | 8.3 | 33.5 (≈ 52.2 µM) | 0.8 | 0.7 | 10 | O=C(Nc1ccc(C(=O)N2CCC(N3CCCC3)CC2)cc1)Nc1ccc(-c2nc(N3CCOCC3)nc(N3CCOCC3)n2)cc1 | 
10 | 0.6 | 115 | 45 | 1 (≈ 1.92 µM) |  |  |  | COC(=O)c1ccc(NC(=O)Nc2ccc(-c3nc(N4CCOCC4)nc(N4CCOCC4)n3)cc2)cc1 | 

Continued, compound first:

Row | SMILES | Papp [1] [×10⁻⁶ cm/s] | IC50 [2] [nM] | IC50 [3] [nM] | solubility [4] [µg/mL] | IC50 [5] [nM] | IC50 [6] [nM] | IC50 [7] [nM] | further results
11 | O=C(Nc1ccncc1)Nc1ccc(-c2nc(N3CCOCC3)nc(N3CCOCC3)n2)cc1 | 1.4 | 45 | 43 |  | 1.2 |  |  | 
12 | O=C(Nc1ccccc1)Nc1ccc(-c2nc(N3CCOCC3)nc(N3CCOCC3)n2)cc1 | 0.2 | 56 | 107 |  | 3.9 |  |  | 
13 | O=C(Nc1ccc(-c2nc(N3CCOCC3)nc(N3CCOCC3)n2)cc1)Nc1ccc(F)cc1F |  | 794 | 5630 | 1 (≈ 2.01 µM) |  |  |  | 
14 | O=C(Nc1ccc(-c2nc(N3CCOCC3)nc(N3CCOCC3)n2)cc1)Nc1cccnc1 | 0.5 |  | 92 |  | 1.2 | 1.7 |  | 
15 | CCNC(=O)Nc1ccc(-c2nc(N3CCOCC3)nc(N3CCOCC3)n2)cc1 | 0.7 |  |  | 1 (≈ 2.42 µM) | 10 |  |  | 
16 | CN(C)CCN(C)C(=O)c1ccc(NC(=O)Nc2ccc(-c3nc(N4CCOCC4)nc(N4CCOCC4)n3)cc2)cc1.Cl | 0.03 | 9.8 | 18.3 | 9 | 0.6 |  | 9 | 
17 | CN(C)C1CCN(C(=O)c2ccc(NC(=O)Nc3ccc(-c4nc(N5CCOCC5)nc(N5CCOCC5)n4)cc3)cc2)CC1 [GEDATOLISIB] | 0.1 |  |  | 14 (≈ 22.7 µM) |  |  |  | Activity [8]: Active; Activity [9]: Active; Activity [10]: Active; half-life [11]: 14.4 h; AUC [12]: 42600 ng·h/mL; AUC(0-inf) [13]: 57900 ng·h/mL; clearance [14]: 7 mL/min/kg; Vd [15]: 7.2 L/kg; MRT [16]: 16.7 h; Activity [17]: Active; Activity [18]: Active; Activity [19]: Active; Activity [20]: Active; minimal effective dose [21]: 3 mg/kg; MTD [22]: 30 mg/kg; Activity [23]: 90%
18 | CNC(=O)Nc1ccc(-c2nc(N3CCOCC3)nc(N3CCOCC3)n2)cc1 |  |  |  |  | 11.3 | 350 | 789 | 
19 | O=C(Nc1ccc(CCO)cc1)Nc1ccc(-c2nc(N3CCOCC3)nc(N3CCOCC3)n2)cc1 |  | 36 | 39 |  | 1.8 | 1.5 | 21.5 | 
20 | O=C(Nc1ccc(-c2nc(N3CCOCC3)nc(N3CCOCC3)n2)cc1)NN1CCCCC1 | 0.01 |  |  | 100 (≈ 213 µM) | 460 | 1520 | 7470 | 
21 | O=C(Nc1ccc(-c2nc(N3CCOCC3)nc(N3CCOCC3)n2)cc1)Nc1cccs1 | 2.4 |  | 218 | 2 (≈ 4.28 µM) |  |  |  | 
22 | O=C(Nc1ccc(-c2nc(N3CCOCC3)nc(N3CCOCC3)n2)cc1)Nc1ccnnc1 |  | 38 | 21 | 1 (≈ 2.16 µM) |  |  |  | 
23 | CN(C)CCNC(=O)c1ccc(NC(=O)Nc2ccc(-c3nc(N4CCOCC4)nc(N4CCOCC4)n3)cc2)cc1 | 0.1 | 3 | 11 | 7 (≈ 12.2 µM) | 0.5 | 0.4 | 8 | 
